Measurements reported in PubChem BioAssay AID2305 (GlaxoSmithKline (GSK), 2010).

Tested on: P. falciparum 3D7 growth, pLDH absorbance
Experiment: blood-stage malaria parasite growth potency – strain 3D7, dose response (AID 2305)

Row | SMILES | IC50 [nM]
1 | CN(C)CCCOc1ccc(CN2CC[C@H](NC(=O)c3ccc(Cl)c(Cl)c3)C2)cc1Br | 760
2 | CCn1ncc2c(N3CCCC3=O)cc(C(=O)N[C@@H](Cc3ccccc3)[C@H](O)CNC(C)(C)c3cccc(OC)c3)cc21 | 110
3 | CCOC(=O)N[C@@H]1CN[C@@H](C#Cc2cc3c(Nc4ccc(OCc5cccc(F)c5)c(Cl)c4)ncnc3s2)C1 | 1080
4 | COc1cc(F)c2ncc(Cl)c(CCN3CCC(NCc4cc5c(cn4)OCCO5)CC3)c2c1 | 480
5 | O=C(Cc1ccccc1)NC(CCN1CCC(N(C2CC2)S(=O)(=O)c2cccc(C(F)(F)F)c2)CC1)c1ccc(Cl)c(Cl)c1 (stereo not given) | 1270
6 | CCCc1ccc(N2C(N)=NC(N)=NC2(C)C)cc1 | 30
7 | O=C(Nc1cccc(CN2CCCN(Cc3ccc(O)cc3)CC2)c1)c1cc(F)cc(F)c1 | 660
8 | Oc1ccc2[nH]cc(C3CCN(CCC(c4ccccc4)c4ccccc4)CC3)c2c1 | 990
9 | O=c1cc(NCCCNCc2cc(C(F)(F)F)ccc2Cl)[nH]c2ccccc12 | 1020
10 | CN1CCN(Cc2cccc(-c3ccc4c(Nc5ccc(Oc6ccccc6)cc5)ccnc4c3)c2)CC1 | 230
11 | CCOC(=O)c1ccc(NCc2ccccn2)cc1 | 630
12 | Cc1ccnc(NC(c2ccc(Cl)c([N+](=O)[O-])c2)c2ccc3cccnc3c2O)c1 (stereo not given) | 930
13 | Cc1noc(C)c1-c1ccc2c(Nc3ccccc3C(C)(C)C)c(C(=O)NCc3ccc4c(c3)OCO4)cnc2c1 | 910
14 | CCOC(=O)C1=C(C)NC(C)=C(C(=O)OCC)C1(C(=O)OCc1ccccc1)c1cccc(C(F)(F)F)c1 | 1230
15 | CCN(CC)c1ccc(-c2nc3ncc(Cl)cc3[nH]2)cc1 | 1130
16 | COc1ccccc1Cn1ccnc1SCC(=O)Nc1cccc(C(F)(F)F)c1 | 910
17 | COC(=O)c1cccc(NC(=O)NCCNc2ccnc(Nc3ccc(F)cc3)n2)c1 | 840
18 | CCCCCc1cc(O)c2c(c1)OC(C)(C)CC2C1=CCN(Cc2cccnc2)CC1 (stereo not given) | 990
19 | O=C(NC(CCCN1CCC(c2ccccc2)CC1)c1ccc(Cl)c(Cl)c1)c1cc(C(F)(F)F)cc(C(F)(F)F)c1 (stereo not given) | 860
20 | CN(C)c1ccc(-c2cscc2C(=O)NC2CCCN(Cc3cccnc3)C2)cc1 (stereo not given) | 860
21 | Cc1cccc(OCC(=O)Nc2cccc(NC(=O)COc3cccc(C)c3)n2)c1 | 670
22 | NCCCOc1cnc(-c2ccccc2)c2nc(-c3nonc3N)n(CCc3ccccc3)c12 | 1270
23 | CCN(CC)CCOc1ccc(C(O)(C#CC(O)(c2ccccc2)c2ccc(OCCN(CC)CC)cc2)c2ccccc2)cc1 (stereo not given) | 1310
24 | CC(C)(C)CC(C)(C)c1ccc(O)c(CNC2CCCCC2)c1 | 60

Row | SMILES | IC50 [nM]
25 | CCOc1ccc2nc3cc([N+](=O)[O-])ccc3c(N)c2c1 | 140
26 | Cc1nc2ccc(/C=C/C(=O)NC3CCC(CCN4CCc5ccc(C#N)cc5CC4)CC3)cc2[nH]1 (stereo not given) | 1140
27 | O=C(Nc1ccc(Cl)cc1)Nc1cccc(-c2cccc(-c3nc4ccccc4[nH]3)c2)c1 | 130
28 | CC(Nc1cc(-c2ccccn2)nc(-c2ccccn2)n1)c1ccccc1 (stereo not given) | 450
29 | Cc1cccc(OC(C)C(=O)Nc2cc(C(F)(F)F)ccc2N2CCOCC2)c1 (stereo not given) | 240
30 | COc1ccc(-c2cnc3[nH]cc(-c4ccc(C(=O)O)c(C)c4)c3c2)cn1 | 310
31 | CO/C(=C\C=C\c1cc2cc(Cl)c(Cl)cc2[nH]1)C(=O)NCC(C)(C)CN(C)C | 1160
32 | CC(=O)NCCCCC1NC2(C(=O)N(Cc3ccc(C(C)(C)C)cc3)c3ccccc32)C2C(=O)N(C3CCCCC3)C(=O)C12 (stereo not given) | 790
33 | COc1ccc(Nc2nccc(N3CCC(NC(=O)c4cccc(NC(C)=O)c4)C3)n2)cc1 (stereo not given) | 990
34 | Cc1noc(-c2ccccc2)c1NC(=O)N1CCN(CCCCCCNC(=O)/C=C/c2ccc(Cl)c(Cl)c2)CC1 | 880
35 | C=CCc1cc(Cc2cnc(N)nc2N)cc(CCC)c1O | 990
36 | CNC(=O)/C=C/c1cc(NC(=O)Nc2cc(C)nc3c(F)cccc23)ccc1OC | 910
37 | CN1CCN(c2ccc(Nc3ncc(C#N)c(Nc4ccccc4C(N)=O)n3)cc2)CC1 | 40
38 | O=C(NC1CCCCC1)N(Cc1ccc(-c2ccc(CNCc3ccc4c(c3)OCO4)cc2)cc1)C1CCN(Cc2ccccc2)CC1 | 690
39 | CNC(=O)Cc1ccc(C(=O)Nc2cccc(-c3cccc(-c4nc5ccc(C(F)(F)F)cc5[nH]4)c3)c2)cc1 | 440
40 | CCc1ccc(CN2CCC(CNC(=O)c3cc(-c4cccc(Cl)c4)cs3)C2)cc1 (stereo not given) | 1110
41 | Cc1ccccc1C1CCN(C2CCC(NC(=O)/C=C/c3ccc(Cl)cc3)CC2)CC1 (stereo not given) | 800
42 | Clc1ccccc1CCNCC1CCN(CC2CCCCC2)CC1 | 690
43 | O=C(Nc1ccc2c(c1)CCN2C1CCN(Cc2csc3ccccc23)C1)c1ccco1 (stereo not given) | 320
44 | Oc1cc(Nc2ccnc3cc(-c4ccc(CN5CCCCC5)o4)ccc23)c(Cl)cc1F | 120
45 | CCCCc1ccc(C(=O)NC2CCN(C[C@H](O)c3ccnc4ccc(OC)cc34)CC2)cc1 | 730
46 | CCOc1cc(CC)ccc1C1CCN(CCN2CCC(NC(=O)c3ccc(-c4ccc(C(C)=O)cc4)cc3)CC2)CC1 | 230
47 | O=C(NCc1cccc(CN2CCOCC2)c1)c1cc(Br)cc(N2CCN(c3ccncc3)CC2)c1 | 860
48 | NC1=NC(Cc2ccccc2)N(c2ccc(Cl)cc2)C(N)=N1 (stereo not given) | 140

Row | SMILES | IC50 [nM]
49 | O=C(Nc1ccc(OC2CCN(Cc3ccsc3)C2)c(Cl)c1)c1cccs1 (stereo not given) | 960
50 | Nc1nc(N)c2c(ccn2Cc2cc3c(cc2Cl)OCO3)n1 | 760
51 | Nc1ncc(-c2cn[nH]c2)cc1-c1nc2ccc(F)cc2[nH]1 | 730
52 | N[C@@H](Cc1cc(I)c(Oc2ccc(O)c(C(=O)O)c2)c(I)c1)C(=O)O | 990
53 | COc1ccc(CN2CCCN(Cc3cccc(NC(=O)c4ccc5ccccc5c4)c3)CC2)cc1 | 1000
54 | COc1cc(OC)cc(C(=O)N2CCOC(CCN3CCC(c4ccccc4)CC3)(c3ccc(Cl)c(Cl)c3)C2)c1 (stereo not given) | 440
55 | COc1cc(F)c2ncc(Cl)c(CCN3CCC(NCc4ccc5c(n4)NC(=O)CO5)CC3)c2c1 | 500
56 | O=C(Nc1cccc(-c2ccc(CN3CCC(O)CC3)cc2)c1)c1ccc(Cl)cc1 | 960
57 | Cc1cc(N2CC=CCC2)nc(/N=C(\N)Nc2ccc(Br)cc2)n1 | 690
58 | COc1ccc(-n2c(=O)c3c(n4c(SC(C)C)nnc24)-c2ccccc2CC32CCCCC2)cc1 | 500
59 | Cc1cc(Nc2ccc3c(c2)CCC3)n2ncnc2n1 | 970
60 | Cc1ccccc1C1CCN(C2CCC(NC(=O)/C=C/c3cccc(Cl)c3F)CC2)CC1 (stereo not given) | 1140
61 | S=C(NCC1CCCCC1)NC1CCC(CN2CCC(c3c[nH]c4ccccc34)CC2)CC1 (stereo not given) | 1110
62 | O=c1cc(NCCCNC2CCCc3c2cc(Cl)c(Cl)c3Cl)[nH]c2ccccc12 (stereo not given) | 280
63 | Cc1ccc(NC(=O)c2c(C)noc2-c2snnc2C)cc1 | 1370
64 | O=c1ccc2ccc(F)c3c2n1CC3CN1CCC(NCc2cccc(-c3ccccc3F)c2)CC1 (stereo not given) | 1100
65 | CC(C)(CNCc1ccc(C(F)(F)F)cc1)c1nc(-c2ccc(Cl)c(O)c2)c(-c2ccncc2)[nH]1 | 730
66 | COCCNCc1ccc(-c2ccccc2CNC2CCN(Cc3ccccc3)CC2)cc1 | 980
67 | CCOC(=O)c1ccc(NC(=O)NNC(=O)c2ccc(CCN3CCC(c4nc(COCC(F)(F)F)c(-c5ccc(F)cc5)o4)CC3)cc2)cc1 | 570
68 | CNC(=O)c1cnc(Nc2ccc(N3CCN(C)CC3)cc2)nc1Nc1cccc([N+](=O)[O-])c1 | 290
69 | COc1ccc(Cl)cc1NC(=O)Nc1cc(C)nc2ccccc12 | 290
70 | CCc1cccc(NC(=O)c2ccc(CN3CCCN(CC4CCCCC4)CC3)cc2)c1 | 400
